Usually pIC50 stands for −log10 of the IC50, conventionally taken in molar units.

Experiment [1] addresses T1, human α4β7 (Homo sapiens, UniProt P13612+P26010).
T1 construct: expressed in transfected cells
T1 sequence (P13612 34-1032): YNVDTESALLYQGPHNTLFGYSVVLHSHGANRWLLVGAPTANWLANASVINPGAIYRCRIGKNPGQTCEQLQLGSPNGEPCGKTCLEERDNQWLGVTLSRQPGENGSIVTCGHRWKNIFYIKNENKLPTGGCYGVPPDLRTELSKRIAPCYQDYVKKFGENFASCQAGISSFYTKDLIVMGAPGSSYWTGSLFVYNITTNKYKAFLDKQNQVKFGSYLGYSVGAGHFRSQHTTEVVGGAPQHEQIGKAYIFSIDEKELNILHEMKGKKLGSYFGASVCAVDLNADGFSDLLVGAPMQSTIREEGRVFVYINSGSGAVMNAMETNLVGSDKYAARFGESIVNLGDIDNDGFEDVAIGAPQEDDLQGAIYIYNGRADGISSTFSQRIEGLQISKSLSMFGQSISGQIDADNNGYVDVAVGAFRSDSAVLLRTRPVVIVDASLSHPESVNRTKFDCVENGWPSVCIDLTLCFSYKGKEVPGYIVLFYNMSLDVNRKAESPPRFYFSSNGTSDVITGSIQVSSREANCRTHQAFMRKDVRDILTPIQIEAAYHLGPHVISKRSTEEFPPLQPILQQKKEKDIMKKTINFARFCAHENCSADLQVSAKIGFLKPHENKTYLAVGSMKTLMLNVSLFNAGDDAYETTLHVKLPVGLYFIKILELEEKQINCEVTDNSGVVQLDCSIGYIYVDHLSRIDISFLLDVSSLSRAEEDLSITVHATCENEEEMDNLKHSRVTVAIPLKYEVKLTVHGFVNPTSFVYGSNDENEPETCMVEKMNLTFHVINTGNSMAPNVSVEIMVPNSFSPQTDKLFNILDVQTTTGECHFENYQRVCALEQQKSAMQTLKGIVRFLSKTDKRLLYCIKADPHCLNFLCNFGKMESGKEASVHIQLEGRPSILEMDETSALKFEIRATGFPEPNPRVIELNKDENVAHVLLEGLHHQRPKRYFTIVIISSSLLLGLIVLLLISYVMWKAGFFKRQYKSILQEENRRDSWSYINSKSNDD
T1 sequence (P26010 20-798): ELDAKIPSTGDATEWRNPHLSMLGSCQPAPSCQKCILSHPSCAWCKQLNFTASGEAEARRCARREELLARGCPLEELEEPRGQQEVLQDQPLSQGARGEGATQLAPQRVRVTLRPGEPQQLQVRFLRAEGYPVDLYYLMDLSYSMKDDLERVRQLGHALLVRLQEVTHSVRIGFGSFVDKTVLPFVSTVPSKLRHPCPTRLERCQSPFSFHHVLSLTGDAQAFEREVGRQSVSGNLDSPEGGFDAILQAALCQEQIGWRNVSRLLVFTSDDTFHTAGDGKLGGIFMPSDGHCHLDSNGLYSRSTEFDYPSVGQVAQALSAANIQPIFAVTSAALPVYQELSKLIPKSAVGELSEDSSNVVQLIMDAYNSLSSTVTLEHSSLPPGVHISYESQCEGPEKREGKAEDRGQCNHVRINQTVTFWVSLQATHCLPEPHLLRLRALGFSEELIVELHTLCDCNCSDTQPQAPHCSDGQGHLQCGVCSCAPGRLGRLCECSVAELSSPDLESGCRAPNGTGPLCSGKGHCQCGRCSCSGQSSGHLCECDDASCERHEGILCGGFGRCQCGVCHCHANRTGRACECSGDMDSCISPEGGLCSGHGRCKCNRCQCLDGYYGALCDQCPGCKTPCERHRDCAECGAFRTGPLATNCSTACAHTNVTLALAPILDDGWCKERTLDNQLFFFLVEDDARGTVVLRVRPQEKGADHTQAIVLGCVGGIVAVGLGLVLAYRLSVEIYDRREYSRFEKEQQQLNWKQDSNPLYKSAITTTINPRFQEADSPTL
Briefly: α4β7-K562 Cell Adhesion Assay (α4β7 Mediated Adhesion/VCAM-1). The format is cell-based. How it is done: α4β7-K562 Cell Adhesion Assay (α4β7 Mediated Adhesion/VCAM-1)
(§1) Immulon 96 well plates (Dynex) were coated with 100 μL recombinant hVCAM-1 at 4.0 μg/mL in 0.05 M NaCO3 buffer pH 9.0 overnight at 4° C. (R&D Systems). Plates were washed 3 times in PBS with 1% BSA and blocked for 1 h @ room temperature in this buffer. PBS was removed and compounds to be tested (50 μL) were added at 2× concentration. A stable cell line of K562 cells expressing human α4β7, (50 μL at 2×10^6/mL) labeled with 5 μM Calcein AM (Molecular Probes) for 1 h at 37° C., were added to each well and allowed to adhere for 1 h at room temperature. Plates were washed 3× in PBS+1% BSA and cells were lysed for 15 minutes in 100 μL of 1 M Tris pH 8.0 with 1% SDS. The plate was read at 485 nm excitation and 530 nm emission.

Experiment [2] addresses T2, α4β1 integrin receptor (Homo sapiens, UniProt P05556+P13612).
T2 construct: Ramos Cell Adhesion Assay (α4β1 Mediated Adhesion/VCAM-1); endogenous in cells; host or cells: Ramos cells
Briefly: Ramos Cell Adhesion Assay (α4β1 Mediated Adhesion/VCAM-1). The format is cell-based. How it is done:
Ramos Cell Adhesion Assay (α4β1 Mediated Adhesion/VCAM-1)
as §1, with “Ramos cells,” for “A stable cell line of K562 cells expressing human α4β7,”

[3] abbreviates: Table IV, read-out: Inhibition of Binding of K562 Cells to Immobilized VCAM-1 IC50.
The mark [4] stands for this setting: Table III, read-out: Inhibition of Binding of Ramos Cells to Immobilized VCAM-1 IC50.
Where [5] appears, read: Table I, racemic mixtures and resolved (S,S) and (R,S) diastereomers, read-out: Antagonist IC50 Activity α4β7.
Setting [6] is: Table I, racemic mixtures and resolved (S,S) and (R,S) diastereomers, read-out: Antagonist IC50 Activity α4β1.

Molecules are shown by their SMILES. pIC50: −log10 of the molar value. Where two headings read alike, the source gives them in different places.

T2 sequence (P05556 21-798, one chain of several): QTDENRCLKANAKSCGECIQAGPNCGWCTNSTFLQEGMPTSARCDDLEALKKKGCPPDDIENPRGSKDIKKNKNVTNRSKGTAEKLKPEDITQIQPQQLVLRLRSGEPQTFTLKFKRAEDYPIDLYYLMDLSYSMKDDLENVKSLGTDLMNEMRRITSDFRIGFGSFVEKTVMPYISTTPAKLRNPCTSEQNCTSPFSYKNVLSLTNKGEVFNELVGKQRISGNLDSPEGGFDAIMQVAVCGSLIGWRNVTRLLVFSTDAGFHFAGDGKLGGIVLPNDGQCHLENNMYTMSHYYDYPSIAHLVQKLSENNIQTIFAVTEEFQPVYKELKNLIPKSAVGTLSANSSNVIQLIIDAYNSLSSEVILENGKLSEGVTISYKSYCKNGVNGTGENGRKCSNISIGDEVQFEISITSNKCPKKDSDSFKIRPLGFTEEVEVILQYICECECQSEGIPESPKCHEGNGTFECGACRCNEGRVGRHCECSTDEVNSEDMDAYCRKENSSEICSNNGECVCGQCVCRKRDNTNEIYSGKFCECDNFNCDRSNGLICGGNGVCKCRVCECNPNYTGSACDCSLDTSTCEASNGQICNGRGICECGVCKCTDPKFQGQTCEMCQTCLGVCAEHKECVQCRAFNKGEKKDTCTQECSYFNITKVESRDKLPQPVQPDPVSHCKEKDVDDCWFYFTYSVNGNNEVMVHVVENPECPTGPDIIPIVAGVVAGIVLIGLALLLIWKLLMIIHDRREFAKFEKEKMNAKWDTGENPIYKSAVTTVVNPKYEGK

As to `Cc1ccc(S(=O)(=O)N2C3CCC(CC3)C2C(=O)N[C@@H](Cc2ccc(NC(=O)c3c(Cl)cccc3Cl)cc2)C(=O)O)cc1` (mixture of isomers) [Cpd 1, 4-[(2,6-dichlorobenzoyl)amino]-N-[[2-[(4-methylphenyl)sulfonyl]-2-azabicyclo[2.2.2]oct-3-yl]carbonyl]-L-phenylalanine], the negative logarithm of the IC50 (pIC50) in experiment [1] (setting [3]) is 6.85; in experiment [2] (setting [4]) it was 7.35.

Take `O=C(Nc1ccc(C[C@H](NC(=O)C2C3CCC(CC3)N2S(=O)(=O)c2ccccc2)C(=O)O)cc1)c1c(Cl)cccc1Cl` (mixture of isomers) [Cpd 6, 4-[(2,6-dichlorobenzoyl)amino]-N-[[2-(phenylsulfonyl)-2-azabicyclo[2.2.2]oct-3-yl]carbonyl]-L-phenylalanine]: the pIC50 in experiment [1] (setting [5]) is 6.55; in experiment [2] (setting [6]), 7.70; in experiment [2] (setting [4]), 7.60.

For the compound `COc1cccc(OC)c1-c1ccc(C[C@H](NC(=O)C2C3CCC(CC3)N2S(=O)(=O)c2ccc(C)cc2)C(=O)O)cc1` (mixture of isomers) [Cpd 18, 4-(2,6-dimethoxyphenyl)-N-[[2-[(4-methylphenyl)sulfonyl]-2-azabicyclo[2.2.2]oct-3-yl]carbonyl]-L-phenylalanine], the pIC50 in experiment [1] (setting [5]) is 6.68; in experiment [2] (setting [6]) it was 6.91; in experiment [2] (setting [4]), 6.91.

`O=C(N[C@@H](Cc1ccc(N2C(=O)c3ccccc3C2=O)cc1)C(=O)O)C1C2CCC(CC2)N1S(=O)(=O)c1ccccc1` (mixture of isomers) [Cpd 47, 4-(1,3-dihydro-1,3-dioxo-2H-isoindol-2-yl)-N-[[2-(phenylsulfonyl)-2-azabicyclo[2.2.2]oct-3-yl]carbonyl]-L-phenylalanine]: the pIC50 is 7.08 in experiment [1] (setting [5]), 7.13 in experiment [2] (setting [6]) and 7.13 in experiment [2] (setting [4]).

Turning to `CN(C)C(=O)Oc1ccc(C[C@H](NC(=O)C2C3CCC(CC3)N2S(=O)(=O)c2ccccc2)C(=O)O)cc1` (mixture of isomers) [Cpd 52, O-[(dimethylamino)carbonyl]-N-[[2-(phenylsulfonyl)-2-azabicyclo[2.2.2]oct-3-yl]carbonyl]-L-tyrosine], the pIC50 in experiment [1] is 6.00; in experiment [2] (Antagonist IC50 Activity α4β1, Table I, racemic mixtures and resolved (S,S) and (R,S) diastereomers), 6.91; in experiment [2] (Inhibition of Binding of Ramos Cells to Immobilized VCAM-1 IC50, Table III) it was 6.91.

Consider `CC(C)(C)OC(=O)N1CCC(C(=O)Nc2ccc(C[C@H](NC(=O)C3C4CCC(CC4)N3S(=O)(=O)c3ccccc3)C(=O)O)cc2)CC1` (mixture of isomers) [Cpd 53, 4-[[[1-[(1,1-dimethylethoxy)carbonyl]-4-piperidinyl]carbonyl]amino]-N-[[2-(phenylsulfonyl)-2-azabicyclo[2.2.2]oct-3-yl]carbonyl]-L-phenylalanine], for which the pIC50 in experiment [1] (setting [5]) was 6.06; in experiment [2] (setting [6]), 6.75; in experiment [2] (setting [4]), 7.17.

For `O=C(Nc1ccc(C[C@H](NC(=O)C2C3CCC(CC3)N2S(=O)(=O)c2cccs2)C(=O)O)cc1)c1c(Cl)cncc1Cl` (mixture of isomers) [Cpd 71, 4-[[(3,5-dichloro-4-pyridinyl)carbonyl]amino]-N-[[2-(2-thienylsulfonyl)-2-azabicyclo[2.2.2]oct-3-yl]carbonyl]-L-phenylalanine], the pIC50 in experiment [1] (setting [5]) was 7.52; in experiment [2] (setting [6]), 8.05; in experiment [2] (setting [4]) it was 8.15.

As to `Cc1ccc(S(=O)(=O)N2C3CCC(CC3)C2C(=O)N[C@@H](Cc2ccc(NC(=O)c3c(Cl)cc(Cl)cc3Cl)cc2)C(=O)O)cc1` (stereo partly drawn) [Cpd 2, 4-[(2,4,6-trichlorobenzoyl)amino]-N-[[2-[(4-methylphenyl)sulfonyl]-2-azabicyclo[2.2.2]oct-3-yl]carbonyl]-L-phenylalanine], the pIC50 in experiment [1] (setting [3]) was 7.01; in experiment [2] (setting [4]) it was 7.29.

For the compound `COc1cccc(OC)c1C(=O)Nc1ccc(C[C@H](NC(=O)C2C3CCC(CC3)N2S(=O)(=O)c2ccc(C)cc2)C(=O)O)cc1` (stereo partly drawn) [Cpd 3, 4-[(2,6-dimethoxybenzoyl)amino]-N-[[2-[(4-methylphenyl)sulfonyl]-2-azabicyclo[2.2.2]oct-3-yl]carbonyl]-L-phenylalanine], the pIC50 in experiment [1] (setting [3]) is 5.71; in experiment [2] (setting [4]), 7.30.

For the compound `O=C(Nc1ccc(C[C@H](NC(=O)[C@@H]2C3CCC(C3)N2S(=O)(=O)c2ccccc2)C(=O)O)cc1)c1c(F)cccc1F` (stereo partly drawn) [Cpd 5a, 4-[(2,6-difluorobenzoyl)amino]-N-[[(3S)-2-(phenylsulfonyl)-2-azabicyclo[2.2.1]hept-3-yl]carbonyl]-L-phenylalanine], the pIC50 is 7.21 in experiment [1] (setting [5]), 7.09 in experiment [2] (setting [6]) and 7.09 in experiment [2] (setting [4]).

As for `O=C(Nc1ccc(C[C@H](NC(=O)C2C3CCC(CC3)N2S(=O)(=O)c2ccccc2)C(=O)O)cc1)c1c(F)c(F)cc(F)c1F` (stereo partly drawn) [Cpd 44, 4-[(2,3,5,6-tetrafluorobenzoyl)amino]-N-[[2-(phenylsulfonyl)-2-azabicyclo[2.2.2]oct-3-yl]carbonyl]-L-phenylalanine], the pIC50 in experiment [2] (setting [4]) was 6.51.

`O=C(Nc1ccc(C[C@H](NC(=O)[C@@H]2C3CCC(CC3)N2S(=O)(=O)c2ccccc2)C(=O)O)cc1)c1c(Cl)cncc1Cl` [Cpd 60, 4-[[(3,5-dichloro-4-pyridinyl)carbonyl]amino]-N-[[(3S)-2-(phenylsulfonyl)-2-azabicyclo[2.2.2]oct-3-yl]carbonyl]-L-phenylalanine]: the pIC50 in experiment [2] (setting [4]) was 8.05.

Regarding `CN(C)C(=O)Nc1ccc(C[C@H](NC(=O)C2C3CCC(CC3)N2S(=O)(=O)c2ccccc2)C(=O)O)cc1` (stereo partly drawn) [Cpd 61, 4-[[(dimethylamino)carbonyl]amino]-N-[[2-(phenylsulfonyl)-2-azabicyclo[2.2.2]oct-3-yl]carbonyl]-L-phenylalanine], the pIC50 in experiment [2] (setting [4]) is 7.25.

The values are drawn from patent US6960597B2, “Aza-bridged-bicyclic amino acid derivatives as α4 integrin antagonists” (Orth-McNeil Pharmaceutical, Inc., priority 2000, dated 2005).
